Results published in US20170340584A1 (priority 2014, published 2017).

Key:
[1] = Body weight and body weight gain of high-fat diet mice; format: in vivo, mice (C57BL/6); conditions: sample in drinking water, metformin 250 mg/kg
Protocol: (§1) Using 8-week-old male mice (C57BL/6) (purchased from CoreTech), anti-diabetic candidate materials were evaluated using a GTT (Glucose Tolerance Test) that is a typical method for diagnosis of diabetes.
(§2) Mice were housed at a temperature of 22±2° C. and a relative humidity of 55-60% with 12-hr light/12-hr dark cycles. Five animals were allotted to each group, and mice from the same mother were grouped into one group, because male mice tend to fight together.
(§3) As feed, high-fat diet (60% of calories from fat; Research Diet Inc., New Brunswick, N.J.) and water were fed ad libitum for 10 weeks. Herein, the water fed contained the samples prepared in Examples 1-2 (3), 2-1, 2-4-1, 2-4-2 and 2-5. As a positive control, metformin (M-072, Sigma) (250 mg/kg) was used, and as a control, the samples prepared in Comparative Examples 1-1, 2-3-2, 2-5-1, 2-5-2 and 2-6 were used.
(§4) For reference, each of the samples prepared in Examples 2-4-1, 2-4-2 and 2-5 was set to the amount to be taken by an adult (60 kg) for 3 days, and the amount was converted into a mouse dose (12-fold/kg, see the US NIH guidance), thereby preparing animal feed. Namely, the amount to be taken by an adult (60 kg) for 3 days is 180-day dose/kg, which corresponds to 15-day dose/kg for mice. Thus, the amount corresponds to 750-day dose/mouse (20 g), because the average weight of mice is about 20 g. Thus, one mouse was allowed to take 1/750 of the prepared sample each day.
(§5) In addition, each of the samples prepared in Examples 1-2 (3) and 2-1 was set to the amount to be taken by an adult (60 kg) for 2 days, and the amount was converted into a mouse dose (12-fold/kg, see the US NIH guidance), thereby preparing animal feed. Namely, the amount to be taken by an adult (60 kg) for 2 days is 120-day dose/kg, which corresponds to 10-day dose/kg for mice. Thus, the amount corresponds to 500-day dose/mouse (20 g), because the average weight of mice is about 20 g. Thus, one mouse was allowed to take 1/500 of the prepared sample each day.
The diet intake and the body weight gain were measured weekly for 8 weeks. The body weight and the diet intake were measured immediately before first drug administration, and then measured at one-week intervals.
(§6) Meanwhile, experimental analysis results were expressed as mean±S.E.M., and the significance between test groups was statistically processed using Student T-TEST, and then the significance was verified at *P<0.05.

[2] = Glucose tolerance test (GTT) in high-fat diet mice; format: in vivo, mice (C57BL/6); conditions: for Glucose level (mg/dl), Mean: GTT, high-fat diet mice; for Fasting glucose level / Glucose control ability in GTT: at 8 weeks of high-fat diet feeding; for Fasting glucose level: 8 hours fasted; for Glucose control ability in GTT: glucose 1 g/kg intraperitoneally, 30-120 min
Protocol: as §1, §2, §3, §4, §5
At 8 weeks of high-fat diet feeding, a glucose tolerance test (GTT) was performed. For 8 hours for the test, mice were fasted. Then, blood was sampled from the tail vein, and initial blood glucose levels were measured with a blood glucose meter (AUTO-CHEK, Diatech Korea). Then, glucose was administered intraperitoneally to the mice at a concentration of 1 g/kg, and after 30 min, 60 min, 90 min and 120 min, blood was sampled from the mice, followed by measurement of blood glucose levels (each group consisting of five animals).
as §6

[3] = Blood biochemistry (triglyceride, AST, ALT) in high-fat diet mice; format: in vivo, mice (C57BL/6); conditions: for ALT level (IU/L), Mean / AST level (IU/L), Mean / Triglyceride level (mg/dl), Mean: blood
Protocol: as §1, §3
In blood biochemistry, insulin (AKRIN-011T, Shibayagi, Japan), glucose (AM202, Asan Pharmaceutical Co., Ltd., Korea), triglyceride (AM157, Asan Pharmaceutical Co., Ltd.), total cholesterol (AM202, Asan Pharmaceutical Co., Ltd.), AST and ALT (Asan Pharmaceutical Co., Ltd.) were analyzed using enzymatic assay kits.
(§7) At 10 weeks of high-fat diet feeding, the mice were sacrificed by cervical dislocation to obtain serum. For histological examination, the liver, white adipose tissue (WAT), brown adipose tissue (BAT) and kidney were fixed with formalin (50-00-0, Junsei, Japan), and the remaining organs were stored at −70° C. The blood sampled from the heart was coagulated to obtain serum which was then stored at −70° C.
as §6

[4] = tested on: liver, white adipose tissue (WAT), brown adipose tissue (BAT) and kidney; test: Histological examination of high-fat diet mice; format: in vivo, mice (C57BL/6); conditions: 10 weeks of high-fat diet feeding
Protocol: as §7
For histological examination, the major organs and adipose were fixed in 4% neutral buffered formalin and embedded in paraffin blocks, and the paraffin blocks were sectioned at 5 μm and stained with hymatoxylin (MHS-16, Sigma-Aldrich, USA) and eosin (HT110116, Sigma-Aldrich). The prepared tissue samples were mounted in glycerin gel mounting media (SP15-100, Fisher Scientific, USA), covered with cover glass, and observed with a microscope (IX71, OLYMPUS, USA). The tissue was imaged with the camera equipped in the microscope.

[5] = Scanning electron microscope (SEM) analysis, particle size; format: physicochemical
From the text: For reference, an analysis instrument and analysis conditions are as follows. (1) Analysis instrument: HITACHI (S-2700), Japan (2) Electron gun: Tungsten filament type (3) Resolution: 4.0 nm (4) Accelerating voltage: 15.0 kV.

[6] = Thermogravimetric analysis (TGA); format: physicochemical; conditions: first-order differentiation of TGA; N2, 20° C./min
Protocol: For reference, an analysis instrument and analysis conditions are as follows. (1) Analysis instrument: TGA 7 (Perkin-Elmer) (2) Atmosphere: N2 gas (3) Heating rate: 20° C./min (4) Range: 50 to 600° C.

Compound	Body weight gain, Mean ([1]; 1 week) [g]	Body weight, Mean ([1]; 1 week) [g]	Body weight gain, Mean ([1]; 2 weeks) [g]	Body weight, Mean ([1]; 2 weeks) [g]	Body weight gain, Mean ([1]; 3 weeks) [g]	Body weight, Mean ([1]; 3 weeks) [g]	Body weight gain, Mean ([1]; 4 weeks) [g]	Body weight, Mean ([1]; 4 weeks) [g]	Body weight gain, Mean ([1]; 5 weeks) [g]	Body weight, Mean ([1]; 5 weeks) [g]	Body weight gain, Mean ([1]; 6 weeks) [g]	Body weight, Mean ([1]; 6 weeks) [g]	Body weight gain, Mean ([1]; 7 weeks) [g]	Body weight, Mean ([1]; 7 weeks) [g]	Body weight, Mean ([1]; 8 weeks) [g]	Body weight, Mean ([1]; before administration) [g]	Glucose level (mg/dl), Mean ([2]; 0 min) [mg/dL]	Glucose level (mg/dl), Mean ([2]; 30 min) [mg/dL]	Glucose level (mg/dl), Mean ([2]; 60 min) [mg/dL]	Glucose level (mg/dl), Mean ([2]; 90 min) [mg/dL]	further results
NCCS(=O)(=O)O [DT15, modified taurine]	2.65	20.30	4.40	22.05	6.28	23.93	7.53	25.18	8.38	26.03	10.25	27.90	11.10	28.75	29.23	17.65	121.25	335.25	295.25	193.75	Glucose level (mg/dl), Mean ([2]; 120 min): 126.25 mg/dL; Fasting glucose level [2]: lower than that of the mice administered with high-fat diet (HFD), and were similar to the blood glucose levels of normal mice; Glucose control ability in GTT [2]: significantly higher than that of the group administered with HFD alone; ALT level [3]: lower than those of DT19; AST level [3]: lower than those of DT19; Triglyceride level [3]: significantly lower than that of DT19 (taurine); ALT level (IU/L), Mean [3]: 14.02 IU/L; AST level (IU/L), Mean [3]: 98.96 IU/L; Triglyceride level (mg/dl), Mean [3]: 53.62 mg/dL; Accumulation of adipose in brown adipose tissue [4]: decreased; Development of fatty liver [4]: decreased; Nephrotoxicity ([4]; kidney tissue): did not appear; Average particle size [5]: 190.84 μm; Median particle size [5]: 122.47 μm; Final decomposition temperature [6]: 396 °C; First decomposition temperature [6]: 359 °C
NCCS(=O)(=O)O [DT19, taurine]	2.20	21.46	4.36	23.62	5.34	24.60	6.52	25.78	8.12	27.38	7.94	27.20	8.80	28.06	28.78	19.26	111.80	298.00	295.60	189.40	Glucose level (mg/dl), Mean ([2]; 120 min): 119.00 mg/dL; Fasting glucose level [2]: lower than that of the mice administered with high-fat diet (HFD), and were similar to the blood glucose levels of normal mice; Glucose control ability in GTT [2]: significantly higher than that of the group administered with HFD alone; ALT level (IU/L), Mean [3]: 25.47 IU/L; AST level (IU/L), Mean [3]: 118.63 IU/L; Triglyceride level (mg/dl), Mean [3]: 116.20 mg/dL; Average particle size [5]: 222.06 μm; Median particle size [5]: 192.92 μm; Final decomposition temperature [6]: 394 °C; First decomposition temperature [6]: 362 °C
